In US20070105874A1, “Anti-Tumor Methods Using Multi Drug Resistance Independent Synthetic HSP90 Inhibitors” (Conforma Therapeutics Corporation, priority 2005, published 2007):

What was measured:
[1] = system: H295R adrenal cortical carcinoma cells; test: MTS cytotoxicity assay in H295R adrenal cortical carcinoma cells; conditions: 5 days
Protocol: H295R cells were plated in 96-well plate at low confluence and were analyzed for IC50 as described in FIG. 2 with indicated compounds.
(§1) MTS assays measure the cytotoxicity of the compounds. […] Cells were seeded in 96 well plates at 2000 cells/well and allowed to adhere overnight in Dulbecco's modified Eagle's medium supplemented with 10% fetal bovine serum. The final culture volume was 100 μl. Viable cell number was determined by using the Celltiter 96 AQueous Non-radioactive Cell Proliferation Assay (Promega, Madison Wis.). The MTS/PMS (phenazine methosulfate) solution was mixed at a ratio of 20:1, and 20 μL was added per well to 100 μl of culture medium. After 2-4 hours, the formation of the formazan product was measured at 490 nm absorbance using a multiwell plate spectrophotometer. Background was determined by measuring the Abs 490 nm of cell culture medium and MTS-PMS in the absence of cells and was subtracted from all values. Percent viable cells was calculated as follows: % viable cells=(Abs at 490 nm treated cells/Abs at 490 nm untreated cells)×100

P-gp = target: T1, P-gp (Homo sapiens, UniProt P08183); test: Rhodamine 123 retention (P-gp efflux inhibition) in H295R cells; assay type: cell-based; conditions: rhodamine 123, concentrations up to 10 mM
T1 construct: adrenocortical carcinoma, a tumor that naturally expresses P-gp; endogenous in cells; host or cells: H295R adrenal cortical carcinoma cells
Protocol: Rhodamine 123 level within cells was measured by flow cytometry as described in FIG. 9.

[2] = system: P-gp over-expressing MES SA Dx5 and NCI/ADR-Res cells; test: MTS cytotoxicity assay in P-gp over-expressing versus non-expressing cell lines; assay type: cell-based
Protocol: The cell lines were plated in 96-well plate at 10-20% confluence and treated with increasing concentrations of indicated drug from 1 nM to 10 mM. 5 days later, the surviving fraction was estimated by MTS assay.
as §1

With `C=CCNC1=C2CC(C)CC(OC)C(O)C(C)/C=C(\C)C(OC(N)=O)C(OC)/C=C\C=C(/C)C(=O)NC(=CC1=O)C2=O` (centres unmarked) [Compound 17-AAG, (4E,6Z,10E)-19-(allylamino)-13-hydroxy-8,14-dimethoxy-4,10,12,16-tetramethyl-3,20,22-trioxo-2-azabicyclo[16.3.1]docosa-1(21),4,6,10,18-pentaen-9-yl carbamate] the “cytotoxic potency in adrenal cortical carcinoma” value [1] was “more potent than CsA” and the “inhibitory effect on P-gp efflux activity” value (P-gp) was “No inhibitory effect”.
For `CO[C@H]1/C=C\C=C(/C)C(=O)NC2=CC(=O)C(NCCN(C)C)=C(C[C@@H](C)C[C@H](OC)[C@H](O)[C@@H](C)/C=C(\C)[C@@H]1OC(N)=O)C2=O` [Compound 17-DMAG, (4E,6Z,8S,9S,10E,12S,13R,14S,16R)-19-(2-(dimethylamino)ethylamino)-13-hydroxy-8,14-dimethoxy-4,10,12,16-tetramethyl-3,20,22-trioxo-2-azabicyclo[16.3.1]docosa-1(21),4,6,10,18-pentaen-9-yl carbamate], the P-gp substrate status ([2]; cytotoxicity in cell lines expressing P-gp or MRP to various extent) was “P-gp substrates” and the “cytotoxic potency in adrenal cortical carcinoma” value [1] was “weak”.
With `COc1c(C)cnc(Cn2cc(C#CCCC(N)=O)c3c(Cl)nc(N)nc32)c1C` [Compound XI, 5-(2-amino-4-chloro-7-((4-methoxy-3,5-dimethylpyridin-2-yl)methyl)-7H-pyrrolo[2,3-d]pyrimidin-5-yl)pent-4-ynamide] the “increase of IC50 in P-gp+++ lines” value ([2]; P-gp+++ lines) was 10-20 fold.
